Experiments:
rgRSV224 virus = experiment: Antiviral activity: rgRSV224 (GFP) replication in HeLa cells; assay type: cell-based; conditions: human respiratory syncytial virus, 72 h, read-out: RSV HELA EC50 (μM)
Procedure: (§1) Black 384-well clear-bottom microtiter plates (Corning, Amsterdam, The Netherlands) were filled via acoustic drop ejection using the echo liquid handler (Labcyte, Sunnyvale, California). 200 nL of compound stock solutions (100% DMSO) were transferred to the assay plates. 9 serial 4-fold dilutions of compound were made, creating per quadrant the same compound concentration. The assay was initiated by adding 10 μL of culture medium to each well (RPMI medium without phenol red, 10% FBS-heat inactivated, 0.04% gentamycin (50 mg/mL). All addition steps are done by using a multidrop dispenser (Thermo Scientific, Erembodegem, Belgium). Next, rgRSV224 virus (MOI=1) diluted in culture medium was added to the plates. rgRSV224 virus is an engineered virus that includes an additional GFP gene (Hallak LK, Spillmann D, Collins PL, Peeples ME. Glycosaminoglycan sulfation requirements for respiratory syncytial virus infection; Journal of virology (2000), 74(22), 10508-13) and was in-licensed from the NIH (Bethesda, MD, USA). Finally, 20 μL of a HeLa cell suspension (3,000 cells/well) were plated. Medium, virus- and mock-infected controls were included in each test. The wells contain 0.05% DMSO per volume. Cells were incubated at 37° C. in a 5% CO2 atmosphere. Three days post-virus exposure, viral replication was quantified by measuring GFP expression in the cells by an in house developed MSM laser microscope (Tibotec, Beerse, Belgium). The EC50 was defined as the 50% inhibitory concentration for GFP expression. In parallel, compounds were incubated for three days in a set of white 384-well microtiter plates (Corning) and the cytotoxicity of compounds in HeLa cells was determined by measuring the ATP content of the cells using the ATPlite kit (Perkin Elmer, Zaventem, Belgium) according to the manufacturer's instructions. The CC50 was defined as the 50% concentration for cytotoxicity.

in vitro = assay type: cell-based; conditions: human
Procedure: as §1

Compound	EC50 (rgRSV224 virus) [µM]	CC50 at 3 days (in vitro) [µM]
C[C@@H]1c2ccccc2CCN1C(=O)c1cc(C2CC2)c2c(n1)nc(-c1ccc(C3C[C@H]3C(=O)O)cc1F)n2C (relative stereo) [Compound 13, (Trans)-2-(4-(7-cyclopropyl-1-methyl-5-((R)-1-methyl-1,2,3,4-tetrahydroisoquinoline-2-carbonyl)-1H-imidazo[4,5-b]pyridin-2-yl)-3-fluorophenyl)cyclopropane-1-carboxylic acid]	22.4	> 100
C[C@@H]1c2ccccc2CCN1C(=O)c1cc(C2CC2)c2nc(-c3ccc(C4C[C@@H]4C(=O)O)cc3F)n(C)c2c1 (relative stereo) [Compound 14, Cis-2-(4-{4-cyclopropyl-1-methyl-6-[(1R)-1-methyl-1,2,3,4-tetrahydroisoquinoline-2-carbonyl]-1H-1,3-benzodiazol-2-yl}-3-fluorophenyl)cyclopropane-1-carboxylic acid]	9.05	> 100
C[C@@H]1c2ccccc2CCN1C(=O)c1cc(C2CC2)c2nc(-c3ccc(C4C[C@@H]4C(N)=O)cc3F)n(C)c2c1 (relative stereo) [Compound 15, Cis-2-(4-{4-cyclopropyl-1-methyl-6-[(1R)-1-methyl-1,2,3,4-tetrahydroisoquinoline-2-carbonyl]-1H-1,3-benzodiazol-2-yl}-3-fluorophenyl)cyclopropane-1-carboxamide]	0.69	50.4
C[C@@H]1c2ccccc2CCN1C(=O)c1cc(C2CC2)c2nc(-c3ccc(C4CC4C(=O)O)cc3F)n(C)c2n1 (stereo in doubt) [Compound 11, Trans 2-(4-{7-Cyclopropyl-3-methyl-5-[(1R)-1-methyl-1,2,3,4-tetrahydroisoquinoline-2-carbonyl]-3H-imidazo[4,5-b]pyridin-2-yl}-3-fluorophenyl)cyclopropane-1-carboxylic acid]	0.52	76.8
CCc1cc(C(=O)N2CCc3ccccc3[C@H]2C)nc2oc(-c3ccc(NC(=O)N4CC[C@@H](O)C4)cc3F)nc12 [Compound 1, (R)-N-(4-(7-ethyl-5-((R)-1-methyl-1,2,3,4-tetrahydroisoquinoline-2-carbonyl)oxazolo[5,4-b]pyridin-2-yl)-3-fluorophenyl)-3-hydroxypyrrolidine-1-carboxamide]	0.01	> 25
C[C@@H]1c2ccccc2CCN1C(=O)c1cc(C2CC2)c2nc(-c3ccc(N4C[C@H](O)[C@@H](O)C4)cc3F)oc2n1 [Compound 2, (7-cyclopropyl-2-(4-((3 S,4S)-3,4-dihydroxypyrrolidin-1-yl)-2-fluorophenyl)oxazolo[5,4-b]pyridin-5-yl)((R)-1-methyl-3,4-dihydroisoquinolin-2(1H)-yl)methanone]	0.02	26
CCc1cc(C(=O)N2CCc3ccccc3[C@H]2C)cc2cc(-c3ccc(N4C[C@H](O)[C@@H](O)C4)cc3F)oc12 [Compound 3, (2-(4-((3S,4S)-3,4-dihydroxypyrrolidin-1-yl)-2-fluorophenyl)-7-ethylbenzofuran-5-yl)((R)-1-methyl-3,4-dihydroisoquinolin-2 (1H)-yl)methanone]	0.25	24.2
C[C@@H]1c2ccccc2CCN1C(=O)c1cc(C2CC2)c2cc(-c3ccc(N4C[C@H](O)[C@@H](O)C4)cc3F)sc2n1 [Compound 4, (4-cyclopropyl-2-(4-((3 S,4S)-3,4-dihydroxypyrrolidin-1-yl)-2-fluorophenyl)thieno[2,3-b]pyridin-6-yl)((R)-1-methyl-3,4-dihydroisoquinolin-2(1H)-yl)methanone]	0.14	14.3
C[C@@H]1c2ccccc2CCN1C(=O)c1cc(C2CC2)c2sc(-c3ccc(N4C[C@H](O)[C@@H](O)C4)cc3F)nc2n1 [Compound 5, (7-cyclopropyl-2-(4-((3 S,4S)-3,4-dihydroxypyrrolidin-1-yl)-2-fluorophenyl)thiazolo[4,5-b]pyridin-5-yl)((R)-1-methyl-3,4-dihydroisoquinolin-2(1H)-yl)methanone]	0.73	33.3
CCc1cc(C(=O)N2CCc3ccccc3[C@H]2C)nc2cc(-c3ccc(NC(=O)N4CC[C@@H](O)C4)cc3F)oc12 [Compound 6, (R)-N-(4-(7-ethyl-5-((R)-1-methyl-1,2,3,4-tetrahydroisoquinoline-2-carbonyl)furo[3,2-b]pyridin-2-yl)-3-fluorophenyl)-3-hydroxypyrrolidine-1-carboxamide]	0.07	> 100
C[C@@H]1c2ccccc2CCN1C(=O)c1cc(C2CC2)c2nn(-c3ccc(NC(=O)N4CC[C@@H](O)C4)cc3F)cc2n1 [Compound 7, (R)-N-(4-(7-cyclopropyl-5-((R)-1-methyl-1,2,3,4-tetrahydroisoquinoline-2-carbonyl)-2H-pyrazolo[4,3-b]pyridin-2-yl)-3-fluorophenyl)-3-hydroxypyrrolidine-1-carboxamide]	0.05	47.6
C[C@@H]1c2ccccc2CCN1C(=O)c1cc(C2CC2)c2cc(-c3ccc([C@H]4C[C@@H]4C(=O)O)cc3F)[nH]c2c1 [Compound 8, (1 S,2S)-2-(4-(4-cyclopropyl-6-((R)-1-methyl-1,2,3,4-tetrahydroisoquinoline-2-carbonyl)-1H-indol-2-yl)-3-fluorophenyl)cyclopropane-1-carboxylic acid]	2.04	20.9
C[C@@H]1c2ccccc2CCN1C(=O)c1cc(C2CC2)c2cc(-c3ccc([C@H]4C[C@@H]4C(=O)O)cc3F)n(C)c2c1 [Compound 9, (1 S,2S)-2-(4-(4-cyclopropyl-1-methyl-6-((R)-1-methyl-1,2,3,4-tetrahydroisoquinoline-2-carbonyl)-1H-indol-2-yl)-3-fluorophenyl)cyclopropane-1-carboxylic acid]	2.31	31.4
C[C@@H]1c2ccccc2CCN1C(=O)c1cc(C2CC2)c2cc(-c3ccc(N4CC[C@@H](C(=O)O)C4)cc3F)n(C)c2c1 [Compound 10, (R)-1-(4-(4-cyclopropyl-1-methyl-6-((R)-1-methyl-1,2,3,4-tetrahydroisoquinoline-2-carbonyl)-1H-indol-2-yl)-3-fluorophenyl)pyrrolidine-3-carboxylic acid]	2.64	21.1
C[C@@H]1c2ccccc2CCN1C(=O)c1cc(C2CC2)c2nc(-c3ccc(N4CC[C@H](C(=O)O)C4)cc3F)n(C)c2n1 [Compound 12, Methyl (3S)-1-(4-{7-cyclopropyl-3-methyl-5-[(1R)-1-methyl-1,2,3,4-tetrahydroisoquinoline-2-carbonyl]-3H-imidazo[4,5-b]pyridin-2-yl}-3-fluorophenyl)pyrrolidine-3-carboxylic acid]	0.43	63
C[C@@H]1c2ccccc2CCN1C(=O)c1cc(C2CC2)c2nc(-c3ccc(N4CC[C@H](C(=O)O)C4)cc3F)n(C)c2c1 [Compound 16, (3S)-1-(4-{4-Cyclopropyl-1-methyl-6-[(1R)-1-methyl-1,2,3,4-tetrahydroisoquinoline-2-carbonyl]-1H-1,3-benzodiazol-2-yl}-3-fluorophenyl)pyrrolidine-3-carboxylic acid]	0.61	65.3
C[C@@H]1c2ccccc2CCN1C(=O)c1cc(C2CC2)c2nc(-c3ccc(N4CC[C@H](C(N)=O)C4)cc3F)n(C)c2c1 [Compound 17, (3S)-1-(4-{4-Cyclopropyl-1-methyl-6-[(1R)-1-methyl-1,2,3,4-tetrahydroisoquinoline-2-carbonyl]-1H-1,3-benzodiazol-2-yl}-3-fluorophenyl)pyrrolidine-3-carboxamide]	0.17	39.6
C[C@@H]1c2ccccc2CCN1C(=O)c1cc(C2CC2)c2nc(-c3ccc(NC(=O)N4CC[C@@H](O)C4)cc3F)n(C)c2c1 [Compound 18, (3R)-N-(4-{4-Cyclopropyl-1-methyl-6-[(1R)-1-methyl-1,2,3,4-tetrahydroisoquinoline-2-carbonyl]-1H-1,3-benzodiazol-2-yl}-3-fluorophenyl)-3-hydroxypyrrolidine-1-carboxamide]	0.14	51.6
C[C@@H]1c2ccccc2CCN1C(=O)c1cc(C2CC2)c2nn(-c3ccc(N)cc3F)cc2c1 [Compound 19, 4-{7-Cyclopropyl-5-[(1R)-1-methyl-1,2,3,4-tetrahydroisoquinoline-2-carbonyl]-2H-indazol-2-yl}-3-fluoroaniline]	0.16	55.2
C[C@@H]1c2ccccc2CCN1C(=O)c1cc(C2CC2)c2nn(-c3ccc(NC(=O)N4CC[C@H](O)C4)cc3F)cc2c1 [Compound 20, (3S)-N-(4-{7-Cyclopropyl-5-[(1R)-1-methyl-1,2,3,4-tetrahydroisoquinoline-2-carbonyl]-2H-indazol-2-yl}-3-fluorophenyl)-3-hydroxypyrrolidine-1-carboxamide]	0.06	54.4
